# “Also recorded” adds a separate entry of the source.
# Key:
# Assay type in all cases: cell-based, human
# A38Lg cells = assay: RNA-seq of control (DMSO) and 6AN treated cells, differentially expressed genes
# Protocol: (§1) RNAi experiments were performed with siRNA transfections (Oligofectamine, Life Technologies) using negative control siRNA (Sigma, SIC001) and pre-designed siRNA oligonucleotides against indicated genes in parallel (Sigma, PGD: SASI_Hs02 00334150, CDH2: SASI_Hs01_00153995, TOP2B: SASI_Hs02_00311874). siRNAs against mutant KRAS^G12V (CUACGCCAACAGCUCCAAC) (SEQ ID NO:1) were custom designed. Cells were incubated with siRNAs for 4 days after transfection and harvested. For drug treatments in 2-D, cells were grown to 70-80% confluency and treated for 3 days with 250 uM 6AN or DMSO negative control.
# Tests for statistical significance (two-tailed students t-test) were performed on data collected from technical replicate (performed in parallel at the same time) or biological replicate (performed at different times) experiments as indicated in the figure legends using excel software for western blot densitometry, MTT assays, and tumor measurements. Whole genome bisulfite sequencing and RNA-seq were performed with HiSeq instruments (Illumina) as described in Hansen et al. (Increased methylation variation in epigenetic domains across cancer types. Nat Genet 43, 768-75 (2011)). ChIP assays were performed as previously described for fixed cells with sonication. For ChIP-qPCR, equal amounts of paired input/IP DNA were amplified by real-time PCR (Roche LightCycler96) and fold enrichments calculated. Primer sequences are listed in Supplementary Table 11. […] IP sequencing reads were normalized to their corresponding inputs. Sequencing procedures, bioinformatics methods including domain calls, and statistical analyses are described in detail within the supplementary methods section.
# RNA-Seq data processing. 100 bp paired-end HiSeq2000 sequencing reads were aligned against human genome (hg19) by OSA (version 2.0.1) with default parameters. After alignment, only uniquely aligned reads were kept for further analysis. Gene annotation information was downloaded from ENSEMBL (ensembl.com, release 66). Reads count for each gene of all samples were estimated using HTSeq (huber.embl.de/users/anders/HTSeq/doc/overview.html) and then were used to identify differentially expressed (DE) genes using DESeq package. Genes with FDR<0.01 and fold-change>1.5 were considered DE genes.
# [1] = test system: CDH2 and TOP2B expression; assay: Real-time RT-PCR of CDH2 and TOP2B
# Protocol: (§2) Histones were acid extracted as described and western blots performed on 3.5 ug histones, which were checked by Ponceau stains prior to western blot to ensure equal loading. Densitometry was performed with ImageJ software. RNA was extracted with Trizol reagent (Life Technologies) and isopropanol precipitated. Genomic DNA was purified with MasterPure DNA extraction reagents (Epicenter). Immunohistochemistry, H&E staining, and immunofluorescence on formalin-fixed, paraffin-embedded (FFPE) tissue microarray sections (TMAs) were performed according to standard procedures.
# [2] = test system: global chromatin modifications in peritoneal subclone (A38Per), normal cells (HPDE, fibroblast) and local-regional PDACs; assay: Western blots of histone modifications, peritoneal subclone, normal cells and local-regional PDACs
# Protocol: as §2, §1
# [3] = genes down in A38Lg vs A38Per and down in 6AN vs DMSO treated A38Lg, RNA-seq DE genes
# [4] = genes down in A38Lg vs A38Per and up in 6AN vs DMSO treated A38Lg, RNA-seq DE genes
# [5] = genes recurrently down vs. A38Per and down in 6AN treated A38Lg cells, out of all 6AN down genes
# [6] = genes recurrently down vs. A38Per and down in 6AN treated A38Lg cells, out of all recurrent down genes
# [7] = genes recurrently down vs. A38Per and up in 6AN treated A38Lg cells, out of all 6AN up genes
# [8] = genes recurrently down vs. A38Per and up in 6AN treated A38Lg cells, out of all recurrent down genes
# [9] = genes recurrently up across all samples vs. A38Per and down in 6AN vs. DMSO treated A38Lg cells, out of all 6AN down genes
# [10] = genes recurrently up vs. A38Per and down in 6AN treated A38Lg cells, out of all recurrent up genes
# [11] = genes recurrently up vs. A38Per and up in 6AN treated A38Lg cells, out of all recurrent up genes
# [12] = genes up in A38Lg vs A38Per and down in 6AN vs DMSO treated A38Lg, RNA-seq DE genes
# [13] = genes up in A38Lg vs A38Per and up in 6AN vs DMSO treated A38Lg, RNA-seq DE genes
compound,measurement,setting,value
"NC(=O)c1ccc(N)nc1 [6AN, 6-aminonicotinamide]",Coregulated/6AN down (38Lg down/6AN down): coregulated genes / all 6AN down genes,A38Lg cells; [3],277/1968
same,Coregulated/38Lg down (38Lg down/6AN down): coregulated genes / all 38Lg down genes,A38Lg cells; [3],277/4402
same,"Coregulated/6AN down (38Lg down/6AN down), percent","A38Lg cells; genes down in A38Lg vs A38Per and down in 6AN vs DMSO treated A38Lg, share of 6AN down genes",(14%)
same,"Coregulated/38Lg down (38Lg down/6AN down), percent","A38Lg cells; genes down in A38Lg vs A38Per and down in 6AN vs DMSO treated A38Lg, share of 38Lg down genes",(0.06%)
same,Coregulated/6AN up (38Lg down/6AN up): coregulated genes / all 6AN up genes,A38Lg cells; [4],915/2192
same,Coregulated/38Lg down (38Lg down/6AN up): coregulated genes / all 38Lg down genes,A38Lg cells; [4],915/4402
same,"Coregulated/6AN up (38Lg down/6AN up), percent","A38Lg cells; genes down in A38Lg vs A38Per and up in 6AN vs DMSO treated A38Lg, share of 6AN up genes",(42%)
same,"Coregulated/38Lg down (38Lg down/6AN up), percent","A38Lg cells; genes down in A38Lg vs A38Per and up in 6AN vs DMSO treated A38Lg, share of 38Lg down genes",(21%)
same,Recurrent Down/6AN Down: Coregulated/6AN down (gene count ratio),A38Lg cells; [5],111/1968
same,Recurrent Down/6AN Down: Coregulated/6AN down (percent),A38Lg cells; [5],(0.06%)
same,Recurrent Down/6AN Down: Coregulated/Recurrent down (gene count ratio),A38Lg cells; [6],111/1842
same,Recurrent Down/6AN Down: Coregulated/Recurrent down (percent),A38Lg cells; [6],(0.06%)
same,Recurrent Down/6AN Up: Coregulated/6AN up (gene count ratio),A38Lg cells; [7],332/2192
same,Recurrent Down/6AN Up: Coregulated/6AN up (percent),A38Lg cells; [7],(15%)
same,Recurrent Down/6AN Up: Coregulated/Recurrent down (gene count ratio),A38Lg cells; [8],332/1842
same,Recurrent Down/6AN Up: Coregulated/Recurrent down (percent),A38Lg cells; [8],(18%)
same,Recurrent Up/6AN Down: Coregulated/6AN down (gene count ratio),A38Lg cells; [9],255/1968
same,Recurrent Up/6AN Down: Coregulated/6AN down (percent),A38Lg cells; [9],(13%)
same,Recurrent Up/6AN Down: Coregulated/Recurrent up (gene count ratio),A38Lg cells; [10],255/891
same,Recurrent Up/6AN Down: Coregulated/Recurrent up (percent),A38Lg cells; [10],(28.6%)
same,Recurrent Up/6AN Up: Coregulated/6AN up (gene count ratio),"A38Lg cells; genes recurrently up vs. A38Per and up in 6AN treated A38Lg cells, out of all 6AN up genes",82/2192
same,Recurrent Up/6AN Up: Coregulated/Recurrent up (gene count ratio),A38Lg cells; [11],82/891
same,Recurrent Up/6AN Up: Coregulated/Recurrent up (percent),A38Lg cells; [11],(9%)
same,Coregulated/6AN down (38Lg up/6AN down): coregulated genes / all 6AN down genes,A38Lg cells; [12],1032/1968
same,Coregulated/38Lg up (38Lg up/6AN down): coregulated genes / all 38Lg up genes,A38Lg cells; [12],1032/4368
same,"Coregulated/6AN down (38Lg up/6AN down), percent","A38Lg cells; genes up in A38Lg vs A38Per and down in 6AN vs DMSO treated A38Lg, share of 6AN down genes",(52%)
same,"Coregulated/38Lg up (38Lg up/6AN down), percent","A38Lg cells; genes up in A38Lg vs A38Per and down in 6AN vs DMSO treated A38Lg, share of 38Lg up genes",(24%)
same,Coregulated/6AN up (38Lg up/6AN up): coregulated genes / all 6AN up genes,A38Lg cells; [13],379/2192
same,Coregulated/38Lg up (38Lg up/6AN up): coregulated genes / all 38Lg up genes,A38Lg cells; [13],379/4368
same,"Coregulated/6AN up (38Lg up/6AN up), percent","A38Lg cells; genes up in A38Lg vs A38Per and up in 6AN vs DMSO treated A38Lg, share of 6AN up genes",(17%)
same,"Coregulated/38Lg up (38Lg up/6AN up), percent","A38Lg cells; genes up in A38Lg vs A38Per and up in 6AN vs DMSO treated A38Lg, share of 38Lg up genes",(0.09%)
same,CDH2 expression (RT-PCR),[1]; distant metastatic subclone A38Lg,selectively repressed
same,TOP2B expression (RT-PCR),[1]; lung metastatic subclone,selectively repressed
same,"histone modifications, western blot densitometry","[2]; normal (HPDE, fibroblast) or local-regional PDAC samples",minimal effects; also recorded: did not show such changes
same,effect on global chromatin modifications (western blots),[2]; peritoneal subclone A38Per,no effect

# Reference: patent US11795510B2, “Identification of epigenomic reprogramming in cancer and uses thereof” (The Johns Hopkins University, priority 2016, dated 2023)
